From US20130253056A1, “Continuous Administration of Levodopa and/or Dopa Decarboxylase Inhibitors and Compositions for Same” (NEURODERM, LTD., priority 2009, published 2013)
≈ marks a conversion by molar mass, not a printed value. Where “and” joins values, the source holds several entries; their conditions need not be identical. Equal values may be shown once. Where a name gives a salt, the structure may show the parent alone. Read-outs that look alike come from different tables or passages of the source.

Columns and labels:
[1] = Continuous subcutaneous carbidopa with or without entacapone, levodopa PK in pigs; assay type: in vivo, female landrace×large white swine; details: continuous SC 2% carbidopa with 2.5% entacapone, oral LD/CD
Procedure: (§1) Plasma levels of L-dopa were measured by HPLC-ECD.

[2] = cited from earlier work
[3] = Solubility in PBS, flask method; assay type: physicochemical; details: for solubility: phosphate buffered saline (PBS), aqueous buffer, thermodynamic from solid, read-out: Solubility of LDEs in PBS
Procedure: The “flask method” was used to determine the solubility of the test material in phosphate buffered saline (PBS) according to the OECD Guidelines for the Testing of Chemicals. Briefly, the test material was dissolved in PBS at a temperature slightly above the test temperature. When saturation is achieved, the solution is cooled to the test temperature and the mass concentration of the LD alkyl ester in the solution is determined quantitatively by measuring the absorbance of the solution at 280 nm and comparing the readings to a calibration curve of the relevant alkyl ester dissolved in PBS.

[4] = for LD in Blood (ng/ml): LDiPE / LD in Blood (ng/ml): LD-d3 / Recovery from Blood (%): LD-d3: whole blood
Procedure: LDEs [isopropyl ester (LDipE), propyl ester (LDpE), ethyl ester (LDeE)] and LD-d3, were spiked into whole blood, incubated for 15 or 60 minutes at 37° C., and the plasma or whole blood concentration of LD, LD-d3 and LDipE were quantified using HPLC analysis as shown in Table 6 and FIG. 13.

[5] = Intradermal delivery of LDE in pigs; assay type: in vivo
Procedure: LDEs were infused intradermally for 4 hours. […] Both whole blood and plasma samples were subjected to LD and LDE analysis.

mice = experiment: Skin sensitization, LLNA (local lymph node assay); details: for Median SI / SI / Ind. SI: LLNA mice; for Ind. SI: individual animals
Procedure: Sensitization was tested in mice using a LLNA (local lymph node assay) model for the detection of skin sensitization. […] In another LLNA study, LD Propyl and Benzyl Esters were tested in vehicle containing penetration enhancers.

[6] = Effect of pH on stability and hydrolysis of LDipE; assay type: physicochemical
Procedure: FIG. 19 indicates the effect of pH on stability and hydrolysis of LDipE after 10 days at 4 and 40° C.

[7] = Oral levodopa arginine and carbidopa arginine salts, PK in pigs; assay type: in vivo, female landrace×large white swine; details: for absorption as compared to LD/CD (Sinemet): oral 255/45 mg LDs/CDs (corresponding to 100/25 LD/CD); for PK of plasma LD and CD: oral enteric coated LDs/CDs
Procedure: Pigs were orally administered with 255/45 mg LD-arginine salt (LDs)/CD-arginine salt (CDs) to 30-35 kg pigs in gelatin coated or non-coated capsules (corresponding to 100/25 LD/CD). Plasma levels of LD and CD were measured by HPLC-ECD.

[8] = Pig skin penetration of LDE by patch; assay type: in vivo, pigs; details: for LD P/WB (%) / LD blood cells (C) / Whole blood (WB) LD / Ratio C/P / Plasma (P) LD: 16 h after patch application; for LD blood cells (C) / Whole blood (WB) LD / Plasma (P) LD / LD concentration in the blood cell fraction higher as compared to LDbzE: pigs; for Ratio C/P: blood cell fraction LD / plasma LD; for LD concentration in the blood cell fraction higher as compared to LDbzE: patch
Procedure: Patch removal occurred at 24 h. […] Both whole blood and plasma were subjected to LD and 3-OMD analysis. […] LD formed in the RBC stay within the RBCs, and is further metabolized to 3-OMD, which is reallocated from the RBCs into the plasma.

[9] = Continuous subcutaneous benserazide, levodopa PK in pigs; assay type: in vivo, female landrace×large white swine; details: continuous subcutaneous benserazide with oral L-dopa/Carbidopa
Procedure: as §1

[10] = Continuous subcutaneous administration of LD benzyl ester-HCl in pigs; assay type: in vivo; details: 15% aqueous solution pH 4.7, continuous SC 2 ml/24 h, oral carbidopa q8 h
Procedure: An aqueous solution of 15% LD benzyl ester-HCl, pH 4.7, was continuously administered subcutaneously via an insulin patch pump, 2 ml/24 h. Carbidopa was administered orally q8 h, starting 1 h prior to pump application.

[11] = Transdermal delivery through pig skin ex vivo, Franz cell delivery system; assay type: in vitro ADME, porcine; details: gel formulations, receiver samples 0, 16, 19 and 22 hours
Procedure: Gel formulations containing CDPE were prepared. Samples were collected from the receiver cell at time 0, 16, 19 and 22 hours after formulation application on to the skin. The amount of CD compounds in the receiver cell fluid was determined by a spectrophotometer at […].

[12] = molecular target: T1, dopa-decarboxylases (DDC) (Sus scrofa, UniProt P80041); experiment: Inhibition of dopa-decarboxylase activity in vitro; assay type: biochemical; details: porcine liver homogenate
T1 construct: DDC enzymes were obtained from porcine liver homogenate; from tissue; host or cells: porcine liver homogenate
T1 sequence (P80041 1-486): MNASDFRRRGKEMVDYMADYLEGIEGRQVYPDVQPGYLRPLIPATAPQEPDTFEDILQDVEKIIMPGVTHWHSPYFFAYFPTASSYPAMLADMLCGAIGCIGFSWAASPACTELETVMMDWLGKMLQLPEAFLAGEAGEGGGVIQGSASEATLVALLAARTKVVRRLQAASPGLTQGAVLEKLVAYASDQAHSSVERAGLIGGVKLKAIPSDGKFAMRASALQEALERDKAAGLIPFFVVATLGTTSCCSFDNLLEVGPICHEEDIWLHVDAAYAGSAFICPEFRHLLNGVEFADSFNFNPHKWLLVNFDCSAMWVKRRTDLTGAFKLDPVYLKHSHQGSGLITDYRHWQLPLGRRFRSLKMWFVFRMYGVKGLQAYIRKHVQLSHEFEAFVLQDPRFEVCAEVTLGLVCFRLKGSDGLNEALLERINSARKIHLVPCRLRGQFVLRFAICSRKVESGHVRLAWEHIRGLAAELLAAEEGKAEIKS
Procedure: DDC enzymes were obtained from porcine liver homogenate and their activity was measured by comparing LD concentrations with and without carbidopa propyl ester (CDPE). Liver homogenate preparation was based on the method described by Umezawa et al; (J. Antib. 1975, 28(12):947-52).
All samples were separated on high pressure liquid chromatography columns and the identity and concentration of L-DOPA and dopamine were determined by HP UV-HPLC analysis at […].

[13] = T0 after spiking into whole blood
[14] = T15′ after spiking into whole blood

## CCN(CC)C(=O)/C(C#N)=C/c1cc(O)c(O)c([N+](=O)[O-])c1 [entacapone]
[1]
  levels of 3-OMD: effectively reduced
  pharmacokinetics of levodopa: did not further extend

## N[C@@H](Cc1ccc(O)c(O)c1)C(=O)O [Levodopa, L-3,4-dihydroxyphenylalanine]
[2]
  solubility in alcohol, chloroform or ether: practically insoluble
  solubility in water: only slightly soluble in water

## CCCCOC(=O)[C@@H](N)Cc1ccc(O)c(O)c1 [Butyl, levodopa butyl ester]
[3]
  Solubility of LDEs in PBS: 8.85 mg/mL

## CC(C)OC(=O)[C@@H](N)Cc1ccc(O)c(O)c1 [LD Isopropyl Ester, levodopa isopropyl ester]
[3]
  solubility: 17.3 mg/mL (≈ 72.2 mM)
[4]; 0 min
  Recovery from Blood (%): LDiPE: 45%
[4]; T0 after spiking of LDipE into whole blood
  LD in Plasma (ng/ml): LDiPE: 0 ng/mL
[4]; T15′ after spiking of LDipE into whole blood
  LD in Plasma (ng/ml): LDiPE: 0 ng/mL
[4]; T0 after spiking of LDipE
  LD in Blood (ng/ml): LDiPE: 180 ng/mL
[4]; T15′ after spiking of LDipE, 37° C.
  LD in Blood (ng/ml): LDiPE: 0 ng/mL
[5]; during 4 hours intradermal infusion
  levels of LDipE in the RBC fraction: Significant levels of LDipE were found in the RBC fraction
In vitro
  recovery at 15 min: 0%
  recovery at 15 min, 400 ng/ml: 0%
mice; 1M (24%) in DMF
  Median SI: 3.5
  SI: 4.2
  Ind. SI: 3.63 and 7.11 and 2.69 and 3.33
[6]; after 10 days at 4° C.
  pH of the most stable formulation tested: 5.1
[6]; after 10 days at 40° C., listed as LDipE
  pH of the most stable formulations tested: 3.7 and 4.8

## CC(Cc1ccc(O)c(O)c1)(NN)C(=O)O.N=C(N)NCCCC(N)C(=O)O (stereo not shown) [CDs]
[7]
  absorption as compared to LD/CD (Sinemet): absorbed more rapidly and efficiently
  PK of plasma LD and CD: extended the PK of plasma LD and CD

## N=C(N)NCCCC(N)C(=O)O.NC(Cc1ccc(O)c(O)c1)C(=O)O (stereo not shown) [LDs]
[7]
  absorption as compared to LD/CD (Sinemet): absorbed more rapidly and efficiently
  PK of plasma LD and CD: extended the PK of plasma LD and CD

## [2H]c1c([2H])c(C[C@H](N)C(=O)O)c([2H])c(O)c1O [LD-d3]
[4]; [13]
  LD in Plasma (ng/ml): LD-d3: 533 ng/mL
  Recovery from Plasma (%): LD-d3: 67%
[4]; [14]
  LD in Plasma (ng/ml): LD-d3: 573 ng/mL
  Recovery from Plasma (%): LD-d3: 70% and 72%
[4]; T0 after spiking
  LD in Blood (ng/ml): LD-d3: 289 ng/mL
  Recovery from Blood (%): LD-d3: 72%
[4]; T15′ after spiking
  Recovery from Blood (%): LD-d3: 72%
[4]; T15′ after spiking, 37° C.
  LD in Blood (ng/ml): LD-d3: 288 ng/mL

## N[C@@H](Cc1ccc(O)c(O)c1)C(=O)OCc1ccccc1 [LD Benzyl Ester, levodopa benzyl ester]
[8]
  LD P/WB (%): 39.1%
  LD blood cells (C): 2506 ng/mL
  Whole blood (WB) LD: 4115 ng/mL
[8]; listed as LDbzE
  LD P/WB (%): ~40%
[5]; intradermal infusion
  hydrolysis to LD: hydrolyzed to LD faster than LD isopropyl ester

## Nc1ccc(N)cc1 [Positive Control, p-Phenylendiamine, reference compound]
mice; 1%
  Median SI: 9.7
  SI: 10.1
  Ind. SI: 8.82 and 9.33 and 12.15 and 10.00

## NC(CO)C(=O)NNCc1ccc(O)c(O)c1O (stereo not shown) [benserazide]
[9]
  pharmacokinetic profile of LD: extended the pharmacokinetic profile of LD

## CCCCCCCCOC(=O)[C@@H](N)Cc1ccc(O)c(O)c1 [Octyl, levodopa octyl ester]
[3]
  solubility: 0.031 mg/mL (≈ 0.1 mM)

## NC(Cc1ccc(O)c(O)c1)C(=O)OCc1ccccc1 (stereo not shown) [LD benzyl ester-HCl]
[10]
  plasma concentrations of LD: fluctuations of LD concentrations in the plasma coincided with oral carbidopa administration

## CCCOC(=O)[C@@H](N)Cc1ccc(O)c(O)c1 [LD Propyl Ester, levodopa propyl ester]
[8]; listed as Propyl
  LD P/WB (%): 24.7%
[8]; listed as propyl
  LD P/WB (%): 25%
[8]
  Ratio C/P: 3.0
  LD blood cells (C): 4820 ng/mL
  Plasma (P) LD: 1584 ng/mL
  Whole blood (WB) LD: 6404 ng/mL
  LD concentration in the blood cell fraction higher as compared to LDbzE: 1.9 ×
[8]; listed as LDpE
  Ratio C/P: 3
[3]
  Solubility of LDEs in PBS: 11.238 mg/mL
mice; 1M (24%) in DMF
  Median SI: 3.5
  SI: 3.6
  Ind. SI: 2.32 and 4.55 and 5.12 and 2.44
mice; 15% in Vehicle (penetration enhancers)
  Ind. SI: 36.42 and 7.70 and 38.60 and 3.53 and 31.68
mice; 15% in Vehicle
  Median SI: 31.7
  SI: 23.6
mice; compared with DMF
  change of SI when applied using the transdermal formulation: significantly increased

## CCOC(=O)[C@@H](N)Cc1ccc(O)c(O)c1 [LD Ethyl Ester, levodopa ethyl ester]
[8]; listed as Ethyl
  LD P/WB (%): 13.4%
[8]; listed as ethyl
  LD P/WB (%): 13%
[8]
  Ratio C/P: 6.5
  LD blood cells (C): 6418 ng/mL
  Plasma (P) LD: 989 ng/mL
  Whole blood (WB) LD: 7407 ng/mL
  LD concentration in the blood cell fraction higher as compared to LDbzE: 2.5 ×
mice; 1M (24%) in DMF
  Median SI: 10.8
  SI: 10.7
  Ind. SI: 13.31 and 8.22 and 14.45 and 6.65

## CCCOC(=O)C(C)(Cc1ccc(O)c(O)c1)NN (stereo not shown) [CDPE, carbidopa propyl ester]
[11]
  transdermal delivery through full thickness porcine skin: penetrates the skin in an enhancer-dose dependent manner
[12]
  inhibition of decarboxylation of L-dopa to dopamine: inhibits the decarboxylation of L-dopa to dopamine, in a similar manner to carbidopa and benserazide
